Like-named read-outs stand apart in the source and are kept apart here.
Key:
[1] = tested on: human skeletal muscle cells; assay: Glucose uptake in human myotubes ([14C(U)]-glucose); assay type: cell-based; details: for increase in glucose uptake: 10 µM, 2 days, vs 0.1% DMSO control, mean ± SEM
Method: Figure 2 Effects of elderflower extracts, constituents and metabolites on glucose uptake in human myotubes. Myotubes were treated with (A) 12.5, 25 and 50 µg/mL of different crude extracts; (B,C) 0.1, 1 and 10 µM of elderflower phenolic compounds and metabolites for 2 days. Thereafter, the cells were exposed to [^14C(U)]-glucose (1 μCi/mL, 100 μM) for 4 h as described in the Materials and Methods section. 22-S-hydroxycholesterol (22-SHC) (10 μM) was used as positive control. The figures show [^14C(U)]-glucose uptake given as means ± standard error of the mean (SEM) (n = 3) from separate experiments. * p < 0.05 vs. control (0.1% dimethyl sulfoxide (DMSO)).
(§1) Satellite cells were isolated from the Musculus obliquus internus abdominis of four healthy donors, age 34.8 (±19) years, body mass index 22.9 (±2.7) kg/m^2, fasting glucose 4.9 (±0.6) mM, insulin, plasma lipids and blood pressure within normal range and no family history of diabetes. The muscle biopsies were obtained with informed consent and approval by the National Committee for Research Ethics (Oslo, Norway). The cells were cultured on 96-well CellBIND microplates DMEM-Glutamax (5.5 mM glucose), 2% fetal bovine serum, 2% Ultroser G, penicillin (100 units/mL), streptomycin (100 μg/mL) and amphotericin B (1.25 μg/mL) for proliferation. At 70%–80% confluence, the growth medium was replaced by DMEM-Glutamax (5.5 mM glucose) supplemented with 2% fetal bovine serum, penicillin (100 units/mL), streptomycin (100 μg/mL), amphotericin B (1.25 μg/mL) and insulin (25 pM), to induce differentiation. The cells were cultured in humidified 5% CO2 atmosphere at 37 °C, and the medium was changed every 2–3 days. Experiments were performed after 7 days of differentiation. 22-S-hydroxycholesterol (22-SHC) (10 µM) was used as positive control in the glucose uptake assay. The positive control used in the oleic acid assay is the synthetic liver X receptor (LXR) agonist T0901317 (10 µm).
(§2) Cells were exposed to test samples solved in 0.1% DMSO that were added directly to the medium for 2 days for myotubes and 24 h for HepG2 cells. Thereafter, cells were exposed to [^14C(U)]-glucose (1 μCi/mL, 100 μM) or [^14C]-oleic acid (37 kBq, 100 µM) for 4 h. A 96-well UniFilter-96 GF7B microplate (Perkin Elmer, Waltham, MA, USA) was mounted on top of the CellBIND plate (Corning Life-Sciences (Schiphol-Rijk, The Netherlands) and CO2 production was measured. After incubation the cells were washed twice with ice-cold phosphate buffered saline (PBS), lysed in 0.1 M NaOH, and radioactivity measured by liquid scintillation counting. The protein content of each sample was determined and glucose uptake was calculated using protein levels for standardization.

[2] = tested on: human skeletal muscle cells; assay: Oleic acid uptake in human myotubes ([14C]-oleic acid); assay type: cell-based; details: for increase in oleic acid uptake: 10 µM (highest concentration tested), 2 days, vs 0.1% DMSO control
Method: Figure 3 Effects of elderflower extracts, constituents and metabolites on oleic acid uptake in human myotubes. Myotubes were treated with (A) 12.5, 25 and 50 µg/mL of different crude extracts; (B,C) 0.1, 1 and 10 µM of elderflower phenolic compounds and metabolites for 2 days. Thereafter, the cells were exposed to [^14C]-oleic acid (37 kBq, 100 µM) for 4 h as described in Materials and Methods. A synthetic liver X receptor (LXR) agonist T0901317 (10 μM) was used as positive control. The figures show [^14C]-oleic acid uptake given as means ± SEM (n = 3) from separate experiments. * p < 0.05 vs. control (0.1% DMSO).
as §1, §2

[3] = target: T1, Baker's yeast α-glucosidase (Saccharomyces cerevisiae, UniProt P53341); assay: biochemical; details: IC50 ± SD
T1 construct: purchased Sigma-Aldrich Chemie GmbH (Steinheim, Germany)
T1 sequence (P53341 whole entry): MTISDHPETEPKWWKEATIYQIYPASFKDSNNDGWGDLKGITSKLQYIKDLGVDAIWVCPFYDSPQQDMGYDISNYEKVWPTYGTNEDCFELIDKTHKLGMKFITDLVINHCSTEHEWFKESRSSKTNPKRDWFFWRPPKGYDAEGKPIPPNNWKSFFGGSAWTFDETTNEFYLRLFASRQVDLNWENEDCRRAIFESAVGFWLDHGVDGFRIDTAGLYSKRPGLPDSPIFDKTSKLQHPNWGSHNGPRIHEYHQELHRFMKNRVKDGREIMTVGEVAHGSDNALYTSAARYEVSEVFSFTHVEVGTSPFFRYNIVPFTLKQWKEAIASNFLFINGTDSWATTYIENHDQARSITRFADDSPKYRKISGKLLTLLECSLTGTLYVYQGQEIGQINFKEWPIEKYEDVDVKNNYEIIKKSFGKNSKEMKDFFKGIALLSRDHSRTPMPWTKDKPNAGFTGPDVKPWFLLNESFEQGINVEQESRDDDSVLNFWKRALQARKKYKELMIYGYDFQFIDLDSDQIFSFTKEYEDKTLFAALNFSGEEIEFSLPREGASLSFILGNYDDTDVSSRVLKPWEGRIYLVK
Method: The α-glucosidase inhibitory activity of the extracts was assessed according to the method described by Ranilla, et al.. Baker’s yeast α-glucosidase (EC 3.2.1.20) was purchased from Sigma-Aldrich Chemie GmbH (Steinheim, Germany).

[4] = target: T2, Porcine pancreatic α-amylase (Sus scrofa, UniProt P00690); assay: α-Amylase inhibitory activity; assay type: biochemical; details: phenolic compounds and metabolites; IC50 ± SD
T2 construct: purchased Sigma-Aldrich Chemie GmbH
T2 sequence (P00690 16-511): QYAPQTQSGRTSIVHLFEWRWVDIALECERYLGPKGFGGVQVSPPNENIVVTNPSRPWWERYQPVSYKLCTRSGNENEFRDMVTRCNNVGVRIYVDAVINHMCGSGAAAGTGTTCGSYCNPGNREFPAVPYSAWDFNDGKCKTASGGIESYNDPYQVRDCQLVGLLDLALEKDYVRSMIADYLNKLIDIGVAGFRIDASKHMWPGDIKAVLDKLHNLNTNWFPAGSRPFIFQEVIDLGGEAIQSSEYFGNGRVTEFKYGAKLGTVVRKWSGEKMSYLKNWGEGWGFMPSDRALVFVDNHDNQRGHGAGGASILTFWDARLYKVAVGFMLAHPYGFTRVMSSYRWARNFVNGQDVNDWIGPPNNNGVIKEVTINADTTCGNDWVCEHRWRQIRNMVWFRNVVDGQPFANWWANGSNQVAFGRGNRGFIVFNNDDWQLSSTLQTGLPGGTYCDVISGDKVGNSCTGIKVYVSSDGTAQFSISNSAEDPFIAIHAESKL
Method: The α-amylase assay was performed as described by Gella, et al.. Porcine pancreatic α-amylase (EC 3.2.1.1) was purchased from Sigma-Aldrich Chemie GmbH.

DPPH radical scavenging = details: phenolic compounds and metabolites; IC50 ± SD
Method: Scavenging activity towards the DPPH radical was carried out as previously described. Test substances were dissolved in DMSO or water. Values were corrected for absorbance of the test substances.

[5] = target: T3, 15-lipoxygenase (15-LO) from soybeans (Glycine max, UniProt P08170); assay: Inhibition of 15-lipoxygenase; assay type: biochemical, soybean; details: IC50 ± SD
T3 construct: 15-lipoxygenase (15-LO) from soybeans; purchased Sigma-Aldrich (St. Louis, MO, USA); host or cells: soybeans
T3 sequence (P08170 1-839): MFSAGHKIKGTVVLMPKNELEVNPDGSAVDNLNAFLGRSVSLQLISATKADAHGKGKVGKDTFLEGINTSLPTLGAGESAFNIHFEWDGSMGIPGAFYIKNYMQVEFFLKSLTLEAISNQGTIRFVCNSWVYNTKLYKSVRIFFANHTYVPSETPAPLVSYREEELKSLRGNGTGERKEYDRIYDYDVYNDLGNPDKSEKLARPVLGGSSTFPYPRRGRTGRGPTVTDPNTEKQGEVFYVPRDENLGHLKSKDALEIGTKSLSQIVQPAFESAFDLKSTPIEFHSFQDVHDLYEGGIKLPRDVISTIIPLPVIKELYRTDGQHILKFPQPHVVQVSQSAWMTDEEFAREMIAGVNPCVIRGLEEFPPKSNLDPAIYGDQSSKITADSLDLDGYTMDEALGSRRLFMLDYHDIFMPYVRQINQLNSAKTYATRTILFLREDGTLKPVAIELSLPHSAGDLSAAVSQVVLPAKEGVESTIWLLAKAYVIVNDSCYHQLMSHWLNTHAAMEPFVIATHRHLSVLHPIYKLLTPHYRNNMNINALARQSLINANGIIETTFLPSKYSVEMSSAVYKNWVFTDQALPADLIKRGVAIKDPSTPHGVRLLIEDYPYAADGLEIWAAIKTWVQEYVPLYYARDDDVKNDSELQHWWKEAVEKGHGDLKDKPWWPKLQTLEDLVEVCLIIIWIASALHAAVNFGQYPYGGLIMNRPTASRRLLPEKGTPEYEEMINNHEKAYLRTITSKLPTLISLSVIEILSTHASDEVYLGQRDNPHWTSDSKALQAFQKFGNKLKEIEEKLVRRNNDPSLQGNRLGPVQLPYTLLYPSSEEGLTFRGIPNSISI
Method: Test substances were dissolved in DMSO or water, and the assay was carried out as previously described.

[6] = target: T4, xanthine oxidase from bovine milk (Bos taurus, UniProt P80457); assay: Inhibition of xanthine oxidase; assay type: biochemical; details: for IC50: phenolic compounds and metabolites, IC50 ± SD, read-out: XO IC50; for XO inhibition (in words): up to highest concentration tested (167 µM)
T4 construct: xanthine oxidase from bovine milk; purchased Sigma-Aldrich (St. Louis, MO, USA); host or cells: bovine milk
T4 sequence (P80457 whole entry): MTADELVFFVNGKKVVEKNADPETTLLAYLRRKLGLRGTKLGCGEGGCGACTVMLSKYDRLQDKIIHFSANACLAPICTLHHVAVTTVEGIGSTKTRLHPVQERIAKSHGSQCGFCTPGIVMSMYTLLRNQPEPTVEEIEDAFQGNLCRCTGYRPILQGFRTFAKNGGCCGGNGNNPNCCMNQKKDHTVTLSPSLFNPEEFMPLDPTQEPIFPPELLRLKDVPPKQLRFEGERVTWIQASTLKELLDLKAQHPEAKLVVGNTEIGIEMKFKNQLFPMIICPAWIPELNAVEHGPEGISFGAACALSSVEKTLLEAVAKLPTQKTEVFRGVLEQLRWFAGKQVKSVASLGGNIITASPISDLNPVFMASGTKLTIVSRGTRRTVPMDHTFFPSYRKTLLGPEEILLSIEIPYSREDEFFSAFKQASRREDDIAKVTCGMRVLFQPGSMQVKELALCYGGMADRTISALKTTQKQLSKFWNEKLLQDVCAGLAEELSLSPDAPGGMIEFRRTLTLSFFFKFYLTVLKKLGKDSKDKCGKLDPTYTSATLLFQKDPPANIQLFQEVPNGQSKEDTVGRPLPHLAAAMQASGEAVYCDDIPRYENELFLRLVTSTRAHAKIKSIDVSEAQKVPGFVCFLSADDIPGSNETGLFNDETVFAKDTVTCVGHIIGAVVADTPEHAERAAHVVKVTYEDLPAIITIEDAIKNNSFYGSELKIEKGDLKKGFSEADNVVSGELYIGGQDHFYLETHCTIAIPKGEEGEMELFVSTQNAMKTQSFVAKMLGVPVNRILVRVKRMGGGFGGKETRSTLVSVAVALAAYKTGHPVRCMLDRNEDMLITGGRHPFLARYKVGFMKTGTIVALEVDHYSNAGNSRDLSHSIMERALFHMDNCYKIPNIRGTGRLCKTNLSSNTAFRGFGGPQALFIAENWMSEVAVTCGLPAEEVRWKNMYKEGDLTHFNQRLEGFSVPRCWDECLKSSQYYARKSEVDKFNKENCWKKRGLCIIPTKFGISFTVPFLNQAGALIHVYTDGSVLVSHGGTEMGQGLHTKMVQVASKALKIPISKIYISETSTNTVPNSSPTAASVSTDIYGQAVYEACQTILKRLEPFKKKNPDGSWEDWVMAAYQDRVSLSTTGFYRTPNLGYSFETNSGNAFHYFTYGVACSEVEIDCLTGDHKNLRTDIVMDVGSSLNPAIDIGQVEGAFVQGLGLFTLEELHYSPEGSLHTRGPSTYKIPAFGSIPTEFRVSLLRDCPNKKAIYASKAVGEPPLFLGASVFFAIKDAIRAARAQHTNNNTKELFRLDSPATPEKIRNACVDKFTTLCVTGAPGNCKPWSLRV
Method: The XO inhibitory activity with hypoxanthine as the substrate was carried out previously described. Test substances were dissolved in DMSO or water.

[7] = phenolic compounds and metabolites, read-out: α-Glucosidase IC50
[8] = phenolic compounds and metabolites, read-out: 15-LO IC50
[9] = α-Glucosidase IC50, phenolic compounds and metabolites
[10] = 15-LO IC50, phenolic compounds and metabolites

SMILES	glucose uptake (in words) ([1]; 10 µM (highest concentration tested))	oleic acid uptake (in words) ([2]; 10 µM)	IC50 [3, 7]	IC50 [4]	IC50 (DPPH radical scavenging)	IC50 [5, 8]	IC50 [6]	XO inhibition (in words) [6]	glucose uptake (in words) ([1]; 0.1 and 1 µM, compared to DMSO control)	IC50 [3, 9]	IC50 [5, 10]	increase in glucose uptake [1]	increase in oleic acid uptake [2]
O=C(O)Cc1ccc(O)c(O)c1 [3,4-Dihydroxyphenylacetic acid]	small increase	small but significant increase	78.5 ± 1.6 µM	74.9 ± 1.7 µM	116 ± 1.4 µM	135 ± 7.3 µM	> 167 µM	inactive					
O=C(O)c1ccccc1 [Benzoic acid]					145 ± 5.8 µM		> 167 µM	inactive	inactive	129 ± 3.8 µM	138 ± 6.5 µM		
O=C(O)/C=C/c1ccc(O)c(O)c1 [Caffeic acid]					90.3 ± 4.3 µM		107 ± 3.2 µM			18.5 ± 0.9 µM			
Oc1cc(O)c2c(c1)O[C@H](c1ccc(O)c(O)c1)[C@@H](O)C2 [Catechin]			18.5 ± 2.2 µM	14.1 ± 0.8 µM	19 ± 1.1 µM		> 167 µM	did not inhibit					
Oc1cc(O)c2c(c1)O[C@H](c1ccc(O)c(O)c1)[C@H](O)C2 [Epicatechin]			12.1 ± 2.3 µM	9.7 ± 2.1 µM	15.6 ± 2.3 µM	116 ± 7.9 µM	> 167 µM	did not inhibit					
COc1cc(-c2oc3cc(O)cc(O)c3c(=O)c2OC2OC(COC3OC(C)C(O)C(O)C3O)C(O)C(O)C2O)ccc1O (stereo not shown) [Isorhamnetin-3-rutinoside]			25.2 ± 2.9 µM	26.2 ± 0.7 µM	85 ± 2.1 µM	115 ± 6.2 µM	125 ± 3.9 µM					10.0% ± 3.6%	
COc1cc(-c2oc3cc(O)cc(O)c3c(=O)c2O)ccc1O [Isorhamnetin]					63.3 ± 2.3 µM					8.1 ± 3.1 µM	103 ± 2.4 µM	18.8% ± 4.3%	
CC1OC(OCC2OC(Oc3c(-c4ccc(O)cc4)oc4cc(O)cc(O)c4c3=O)C(O)C(O)C2O)C(O)C(O)C1O (stereo not shown) [Kaempferol-3-rutinoside]				19.1 ± 0.5 µM	30.6 ± 3.9 µM	109 ± 5.6 µM	63.8 ± 2.1 µM			23.9 ± 1.1 µM		29.7% ± 2.5%	
O=C1C[C@@H](c2ccc(O)cc2)Oc2cc(O)cc(O)c21 [Naringenin]				6.2 ± 1.1 µM	23.3 ± 1.4 µM	124 ± 3.5 µM	95.1 ± 4.5 µM						
O=C(C=Cc1ccc(O)c(O)c1)OC1CC(O)(C(=O)O)CC(O)C1O (stereo not shown) [Neochlorogenic acid]				15.4 ± 3.2 µM		115 ± 5.8 µM	26.2 ± 3.1 µM						
O=c1c(OC2OC(CO)C(O)C(O)C2O)c(-c2ccc(O)c(O)c2)oc2cc(O)cc(O)c12 (stereo not shown) [Quercetin-3-glucoside]				3 ± 1.2 µM	17.6 ± 3.2 µM		106 ± 5.3 µM			4.1 ± 1.9 µM			13.1% ± 3.5%
CC1OC(Oc2c(-c3ccc(O)c(O)c3)oc3cc(O)cc(O)c3c2=O)C(O)C(O)C1O (stereo not shown) [Quercetin-3-rhamnoside]				3.5 ± 0.9 µM	19.1 ± 2.1 µM	108 ± 4.6 µM	105 ± 4.6 µM			3.9 ± 1.4 µM			5.0% ± 6.0%
C[C@@H]1O[C@@H](OC[C@H]2O[C@@H](Oc3c(-c4ccc(O)c(O)c4)oc4cc(O)cc(O)c4c3=O)[C@H](O)[C@@H](O)[C@@H]2O)[C@H](O)[C@H](O)[C@H]1O [Rutin, Quercetin-3-rutinoside]				4.1 ± 0.8 µM	22.5 ± 1.6 µM	99.3 ± 1.1 µM	42.9 ± 2.9 µM			4.6 ± 2.3 µM			

Reference: paper PMC6155811, “Effect of Phenolic Compounds from Elderflowers on Glucose- and Fatty Acid Uptake in Human Myotubes and HepG2-Cells” (Molecules : A Journal of Synthetic Chemistry and Natural …, 2017)
